Results: patent publication US20090326013A1, “ISOMERS OF INOSITOL NIACINATE AND USES THEREOF” (priority 2007, published 2009)
Values belong to the compound of their own block, whether it stands above or below them.

Columns and labels:
[1] = 250 mg 3 times daily combined with Mg-chlorophenoxyisobutyrate; cited from earlier work
Esterase = experiment: Hydrolysis in pH 7.4 phosphate buffer (SIF) with esterase; assay type: in vitro ADME; details: for degradation intermediates (penta-, tetra-, tri-, di-niacinates) observed: 16 hours
Procedure: Esterase is an enzyme found in animal liver which catalyzes the hydrolysis of esters. The esterase reaches maximum activity in pH 8.0 borate buffer at 25° C. Simulated intestinal fluid without pancreatin (SIF, 1 L) was prepared according to USP standard procedure (USP29-NF24 S2). The pH of the SIF solution was then adjusted to 7.4. Esterase (6.0 mg) was then added to 200 mL of the pH 7.4 phosphate buffer. […] After sonication for about 1 minute these suspensions were carefully transferred to the hydrolysis medium. As each suspension was added to the pH 7.4 phosphate buffer, a milky white precipitated immediately appeared. The reactors were kept in a thermostatic water bath at 37±1° C. with a shaking rate at 42±1 rpm. At various reaction times ˜2 mL aliquots were taken from the hydrolysis solutions and filtered through 0.45 μm filters in order to remove any undissolved materials. The samples for HPLC analysis were prepared by addition of 20 μL 6N HCl to 1 mL filtrate.

[2] = Dissolution and hydrolysis in pH 7.4 phosphate buffer (SIF without pancreatin); assay type: physicochemical; details: at about 25 hours
Procedure: A pH 7.4 phosphate buffer solution was also prepared from a SIF test solution in the absence of pancreatin. […] The release of niacin and the appearance of the degradation intermediates were monitored up to about 74 hours.

[3] = Dissolution and hydrolysis in simulated gastric fluid (SGF) pH 1.1, release of niacin; assay type: physicochemical; details: for release of niacin in SGF, allo-IHN compared with myo-IHN (FIG. 8): SGF pH 1.1, up to 150 hours; for time to complete dissolution in SGF: 25 mg in 25 mL SGF pH 1.1, 37°C, shaking
Procedure: The hydrolysis was performed in a 37±1° C. thermostatic water bath with a shaking rate at 97±2 rpm. At various time intervals, 100 μl aliquots were taken from the reaction mixture and diluted with 1.5 mL 80/20 acetonitrile/formic acid which were used to quench the hydrolysis reaction.
The pH of the SGF solution was 1.1 at 22° C. […] The reactor was placed in a thermostatic water bath at 37±1° C. with a shaking rate at 42±1 rpm. At various reaction times, 1 mL aliquots were taken from the reaction mixture and analyzed for niacin by HPLC.

[4] = Dissolution and hydrolysis in SIF with pancreatin at pH 6.7; assay type: in vitro ADME; details: pH 6.7, up to 40 hours
Procedure: Simulated intestinal fluid (SIF) with pancreatin was prepared according to the USP standard procedure (USP29-NF24 S2) with a pH of 6.7 at 24° C.

[5] = tested on: women suffering from painful menstrual cramps; details: 100 mg niacin twice daily, then every 2-3 hours during heavy cramps; cited from earlier work
alcoholics = details: three or more grams of niacin daily, five year study; cited from earlier work
[6] = pH 7.4 phosphate buffer with esterase

Compound: O=C(O[C@H]1[C@H](OC(=O)c2cccnc2)[C@@H](OC(=O)c2cccnc2)[C@H](OC(=O)c2cccnc2)[C@@H](OC(=O)c2cccnc2)[C@H]1OC(=O)c1cccnc1)c1cccnc1 [IHN, inositol hexaniacinate]
influence on glucose tolerance [1]: no influence on glucose tolerance

Compound: O=C(O[C@H]1[C@H](OC(=O)c2cccnc2)[C@H](OC(=O)c2cccnc2)[C@@H](OC(=O)c2cccnc2)[C@@H](OC(=O)c2cccnc2)[C@H]1OC(=O)c1cccnc1)c1cccnc1 [allo-IHN, allo-inositol hexaniacinate]
concentration of niacin released (Esterase; 20 mg in 200 mL pH 7.4 phosphate buffer with esterase, 25 hours): 52.8 µg/mL
dissolution rate in the hydrolysis medium (Esterase; [6]): relatively fast
degradation intermediates (penta-, tetra-, tri-, di-niacinates) observed (Esterase; [6]): only the degradation intermediates of allo-IHN
niacin released, % of theoretical release (Esterase; pH 7.4 phosphate buffer with esterase, 25 hours): ~58%
area response of the niacin peak compared with the myo-IHN sample (Esterase; pH 7.4 phosphate buffer with esterase, within one hour): significantly larger
effect of the presence of esterase on release of niacin (Esterase; pH 7.4 phosphate buffer with vs without esterase): further enhances the release of niacin
maximum concentration of niacin released ([2]; 20 mg in 200 mL pH 7.4 phosphate buffer): 30.34 µg/mL
maximum niacin released, % of theoretical release ([2]; pH 7.4 phosphate buffer): ~33%
niacin released in SGF ([3]; 20 mg in 200 mL SGF pH 1.1, 37°C, 118 hours): 38.5 µg/mL
onset of dissolution and hydrolysis in SGF ([3]; 20 mg in 200 ml SGF pH 1.1, 37°C): began immediately after addition to the reaction medium
niacin released in SGF, % of theoretical niacin content ([3]; SGF pH 1.1, 118 hours, theoretical 91 μg/mL): ~42%
release of niacin in SGF, allo-IHN compared with myo-IHN (FIG. 8) [3]: about the same

Compound: O=C(O)c1cccnc1 [niacin, pyridine-3-carboxylic acid]
participants experiencing significant relief of menstrual cramps [5]: Ninety
alcoholics who benefit from supplementation (reduced recidivism and symptom reduction) (alcoholics): 30-60%

Second part, led by results:

degradation intermediates (penta-, tetra-, tri-, di-niacinates) observed (Esterase; [6]): absence of degradation intermediates
release of niacin in SIF with pancreatin [4]: very little release of niacin
time to complete dissolution in SGF [3]: 6 h
release of niacin in SGF, allo-IHN compared with myo-IHN (FIG. 8) [3]: about the same
Compound: O=C(O[C@H]1[C@H](OC(=O)c2cccnc2)[C@@H](OC(=O)c2cccnc2)[C@H](OC(=O)c2cccnc2)[C@@H](OC(=O)c2cccnc2)[C@H]1OC(=O)c1cccnc1)c1cccnc1 [myo-IHN, myo-inositol hexaniacinate, reference compound]
dissolution rate in the hydrolysis medium (Esterase; [6]): considerably slower than the hydrolysis rate
extent of hydrolysis (FIG. 9) (Esterase; [6]): remained as a solid and did not hydrolyze

time to complete dissolution in SGF [3]: > 53 h
Compound: O=C(O[C@H]1[C@H](OC(=O)c2cccnc2)[C@@H](OC(=O)c2cccnc2)[C@H](OC(=O)c2cccnc2)[C@@H](OC(=O)c2cccnc2)[C@@H]1OC(=O)c1cccnc1)c1cccnc1 [scyllo-IHN, Scyllo-inositol hexaniacinate]
dissolution and hydrolysis after increasing acidity of the SGF medium ([3]; 2 ml concentrated HCl injected after 53 hours): can be dissolved and the hydrolysis reaction commences to produce niacin
